{"source": "patent US20160067246A1", "about": "“USE OF PHOSPHODIESTERASE 5A INHIBITORS FOR THE TREATMENT OF MUSCULAR DYSTROPHY” (CEDARS-SINAI MEDICAL CENTER, priority 2013, published 2016)", "key": {"[1]": {"test_system": "patients with Becker muscular dystrophy (BMD)", "experiment": "Functional sympatholysis: LBNP-induced decrease in forearm muscle oxygenation (NIR spectroscopy) at rest vs handgrip, tadalafil acute crossover trial", "format": "in vivo, human", "procedure": "Forearm muscle oxygenation was measured with near-infrared (NIR) spectroscopy, which is based on the principle that laser light with wavelengths in the 700-900 nm range easily penetrates skeletal muscle, and is absorbed by the iron-porphyrin moieties in hemoglobin and myoglobin. Changes in NIR light absorption are proportional to changes in the relative concentrations of oxygenated hemoglobin and myoglobin (HbO2 and MbO2). Because of their nearly identical absorption spectra, individual contributions of HbO2 and MbO2 cannot be determined. The NIR signals reflect changes in oxygenation occurring mainly in the microvasculature, because vessels greater than one millimeter in diameter are maximal absorbers of photons due to the high extinction coefficient of blood. Thus, NIR spectroscopy provides continuous measurement of the adequacy of tissue oxygen delivery relative to its use. […] Changes in forearm tissue oxygenation were expressed as a percentage of […] exercise was performed using a dynamometer ([…] Dynamometer modified by Stoelting, Wood Dale, Ill.). […] The pressure in the chamber was measured by a Statham transducer (Gould Inc., Oxnard, Calif.). […] Reflex vasoconstriction was measured as the LBNP-induced decrease in forearm muscle oxygenation by NIR spectroscopy; this approach provides a valid measure of reflex neurogenic vasoconstriction under these conditions (13). The BP, heart rate, handgrip force, and NIR signals were recorded in response to two minutes of LBNP applied at rest and during the third to fifth minutes of the seven-minute exercise period. […] Patients were queried about potential tadalafil-specific side-effects both for safety monitoring and to assess whether blinding was maintained. tadalafil blood levels were measured using high performance liquid chromatography/tandem mass spectrometry (NMS Labs Willow Grove, Pa.). […] Exercise-induced attenuation of reflex vasoconstriction (functional sympatholysis) was assessed by comparing the LBNP-induced AHbO2+MbO2 (% TLS) at rest vs. the LBNP-induced decrease in AHbO2+MbO2 during handgrip. […]"}, "[2]": {"experiment": "Pharmacokinetic study and drug blood levels in boys with DMD", "format": "in vivo, human", "conditions": "for half-life: serum, oral, read-out: elimination half-life (converted)", "procedure": "Serum blood samples for pharmacokinetic determinations were collected from patients at time 0-hr, 0.25-hr, 0.5-hr, 1-hr, 2-hr, 4-hr, 8-hr, and 24-hr following each treatment (sildenafil and tadalafil) and each dose (0.5 vs. 1.0 mg/kg). Blood levels were measured with high-performance liquid chromatography-tandem mass spectrometry (NMS Labs).\nPatients received 0.5 mg/kg of oral sildenafil or tadalafil on day 1, followed by 1.0 mg/kg of sildenafil or tadalafil on day 2. Patients then crossed over 2 weeks later for the opposite drug. Experiments were performed 1 hour (sildenafil) or 3 hours (tadalafil) after oral treatment to match the experiment with the peak blood level. Patients were queried about potential side-effects throughout the study visit."}}, "note": "Like-named read-outs stand apart in the source and are kept apart here."}
{"smiles": "CN1CC(=O)N2[C@H](c3ccc4c(c3)OCO4)c3[nH]c4ccccc4c3C[C@@H]2C1=O", "note": "[tadalafil]", "values": [{"measurement": "attenuation of the reflex (LBNP) decrease in muscle oxygenation during handgrip", "setting": "[1]; 10 BMD patients, single 20 mg oral tadalafil, >=3 h after dose", "result": "52±12", "unit": "%"}, {"measurement": "LBNP-induced ΔHbO2+MbO2 (% TLS) at rest", "setting": "[1]; BMD patients, 20 mg tadalafil, at rest", "result": "−17±2", "unit": "%"}, {"measurement": "LBNP-induced ΔHbO2+MbO2 (% TLS) during handgrip", "setting": "[1]; BMD patients, 20 mg tadalafil, during handgrip 20% MVC", "result": "−9±2", "unit": "%"}, {"measurement": "peak blood level", "setting": "[2]; boys with DMD, 1.0 mg/kg oral", "result": "492.5 ± 47.3", "unit": "ng/mL"}, {"measurement": "time of peak blood level after oral administration", "setting": "[2]; boys with DMD, 0.5 and 1.0 mg/kg oral", "result": "2 to 4", "unit": "h"}, {"measurement": "time the drug remained elevated in the blood", "setting": "[2]; male, human, in vivo, po", "result": "up to 24 hours"}, {"measurement": "half-life", "setting": "[2]; male, human, boys with DMD, 0.5 mg/kg dose", "result": "24.9 ± 3.1", "unit": "h"}, {"measurement": "half-life", "setting": "[2]; male, human, boys with DMD, 1.0 mg/kg dose", "result": "39.5 ± 6.6", "unit": "h"}]}
